The values that follow come from patent US5616715A, “Dihydropyridine-3, 5-dicarboxylic acid ester derivatives” (Yamanouchi Pharmaceutical Co., Ltd., priority 1984, dated 1997).

Structures can show the parent of a compound that is named as a salt.

For data set [1] the following is noted: U.S. Pat. No. 4,220,649; U. K. Patent No. 2,014,134; cited from earlier work.
The nature of data set [2]: Hypotensive Effect in Anesthetized Rats. It counts as in vivo. The settings on record: for ED (30 mmHg): Rattus norvegicus, iv, urethane-anesthetized rats, dose required to lower mean blood pressure by 30 mmHg. On the procedure: (2) Hypotensive Effect in Anesthetized Rats
Blood pressure was measured in urethane-anesthetized rats. The compound was intravenously administered in an increasing dose manner at an interval of 20 minutes. The doses of the compounds required to lower mean blood pressure by 30 mmHg (ED 30 mmHg) was calculated from the dose-response curves and summarized in Table 2.

The next data set can be described thus: Acute Toxicity in Mice. The conditions noted are these: mouse, in vivo; oral, six weeks old male ICR mice, suspended in 0.5% methylcellulose; Litchfield & Wilcoxon. The protocol:
(3) Acute Toxicity in Mice
Six weeks old and male ICR mice weighing 27 to 29 g were used. The compound was suspended in 0.5% methylcellulose solution and administered orally to mice. The LD50 values of the compounds were calculated by the method of Litchfield & Wilcoxon (Journal of Pharmacol. & Exp. Therap., 96, 99-113, 1949) and summarized in Table 3.

The next data set has as its system coronary artery. Put plainly: Coronary Vasodilating Effect in Anesthetized Dogs (direct intracoronary administration). The conditions noted are these: 1 μg directly into coronary artery; for Overall increase in coronary blood flow at 1 μg: area under the percent increase in coronary blood flow. It counts as in vivo. On the procedure: (1) Coronary Vasodilating Effect in Anesthetized Dogs
In open-chest dogs anesthetized with 30 mg/kg i.v. of pentobarbital sodium, arterial blood from the carotid artery was led to circumflex branch of the left coronary artery by a extracorporeal loop. A servocontrolled pure (model 1215D, Harvard Apparatus) was incorporated in the circuit to maintain a constant perfusion pressure of 120 mmHg by means of a pump controller (SCS-22, Data Graph Co., Tokuya Tukada et al., Folia Pharmacol. Japon, 74, 59p, 1978). An electromagnetic flow probe of extracorporeal type (MF-25, Nihon Koden) was also inserted in the circuit to record coronary blood flow. A dose of 1 μg of the compound was administered directly into the coronary artery and then coronary blood flow was monitored until the blood flow returned to the pretreatment value. And then, the area under the percent increase in coronary blood flow after intracoronary injection of 1 μg of the compound was calculated and used as an index of the overall increase in coronary blood flow.

As for `COC(=O)C1=C(C)NC(C)=C(C(=O)OC2CCN(Cc3ccccc3)C2)C1c1cccc([N+](=O)[O-])c1` (stereo not drawn) [YM-09730, 2,6-dimethyl-4-(3-nitropheny)-1,4-dihydropyridine-3,5-dicarboxylic acid 3-(1-benzylpyrrolidin-3-yl)ester 5-methyl ester], in data set [1], the “duration of the vasodilating and hypotensive effect” value is reported as “prolonged effect”; the “vasodilating activity and hypotensive activity” value is “has a vasodilating activity and a hypotensive activity”.
For orientation: LD50 means the dose expected to kill half of the subjects tested. A low value points to a more toxic substance. For the compound `COC(=O)C1=C(C)NC(C)=C(C(=O)OC2CCN(Cc3ccccc3)C2)C1c1cccc([N+](=O)[O-])c1` (single isomer, unassigned) [Diastereoisomer A (dl form) hydrochloride, 2,6-dimethyl-4-(3-nitro-phenyl)-1,4-dihydropyridine-3,5-dicarboxylic acid 3-(1-benzylpyrrolidin-3-yl)ester 5-methyl ester], the ED (30 mmHg) in data set [2] was 0.002 mg/kg. Moreover, the “hypotensive activity, potency ratio to diastereoisomer B hydrochloride” value in data set [2] (anesthetized rats, i.v.) is “about 70 times”. Further, in the data set “Acute Toxicity in Mice”, the LD50 came out at 295 mg/kg. In the data set with coronary artery, the Duration of the action worked out at 60 min and the “Overall increase in coronary blood flow at 1 μg” value (from here on “Overall increase”) is 1816 ± 377 %, min.
`COC(=O)C1=C(C)NC(C)=C(C(=O)OC2CCN(Cc3ccccc3)C2)C1c1cccc([N+](=O)[O-])c1` (racemic) [Diastereoisomer B (dl form) hydrochloride]: the ED (30 mmHg) in data set [2] is 0.14 mg/kg. In the data set on coronary artery, the Duration of the action is 5 min and the “Overall increase” value is 120 ± 28 %, min.
Regarding `COC(=O)C1=C(C)NC(C)=C(C(=O)O[C@H]2CCN(Cc3ccccc3)C2)C1c1cccc([N+](=O)[O-])c1` (single isomer, unassigned) [Diastereoisomer A (d form) hydrochloride], the LD50 in “Acute Toxicity in Mice” stood at 190 mg/kg. For the same compound, in the data set on coronary artery, the Duration of the action came to 120 min and the “Overall increase” value is given as 4559 ± 894 %, min.
In the case of `COC(=O)C1=C(C)NC(C)=C(C(=O)OC2CCN(Cc3ccccc3)C2)C1c1cccc([N+](=O)[O-])c1` (racemic) [Equivalent mixture of the hydrochlorides of diastereoisomers], in the data set on coronary artery, the Duration of the action stood at 10 min and the “Overall increase” value is recorded as 129 ± 47 %, min.
